The values that follow come from US20110189260A1, “USE OF ZINC CHELATORS TO INHIBIT BIOFILM FORMATION” (UNIVERSITY OF CINCINNATI, priority 2008, published 2011).

“And” between values parts separate entries of the source, which are not always exact repeats. Equal entries are not always repeated. Where two headings read alike, the source gives them in different places.

Series [1] concerns the target Brpt2.5 (Aap construct with two G5 domains and the C-terminal cap) (Staphylococcus epidermidis).
Series [2] has the same target. Description: sedimentation equilibrium AUC at 0 mM Zn; sequence mass monomer 35,971, dimer 71,942.
Series [3] shares this target. Description: sedimentation equilibrium AUC at 10 mM Zn; sequence mass monomer 35,971, dimer 71,942.
For series [4] the target is unchanged. Description: sedimentation equilibrium AUC, monomer-dimer association at 2 mM Zn.
Series [5] shares this target. Description: sedimentation equilibrium AUC, monomer-dimer association at 5 mM Zn.
The target in series [6] is Aap (Accumulation-associated protein) on Staphylococcus epidermidis strain RP62A cells (Staphylococcus epidermidis). Description: cell-based or functional assay.
In series [7] the test system is Methicillin-resistant S. aureus USA300 biofilms. Description: USA300 biofilms on fibronectin-coated plates (FIG. 3B, 3D). The class given is cell-based. The protocol: (§1) FIG. 3. (A) S. epidermidis RP62A biofilms formed on polystyrene and were visualized with crystal violet; addition of the Zn^2+ chelator DTPA (≧30 μM) inhibits biofilm formation. Representative wells have been scanned (bottom). Untreated (“RP62A”) and vehicle (“HCl”) controls are shown. Error bars show standard deviation (* indicates p<0.05 relative to untreated control; n=3); (B) Methicillin-resistant S. aureus USA300 biofilms form on fibronectin-coated plates but are inhibited by addition of DTPA (≧30 μM). (*: p<0.05; n=4); (C) Addition of 5-20 μM ZnCl2 at a minimal inhibitory dose of DTPA (30 μM) rescues biofilm formation by RP62A.
S. aureus strain USA300, which is responsible for recent epidemic outbreaks of community-acquired methicillin-resistant S. aureus (MRSA) infections, formed biofilms on fibronectin-coated plates. As observed for S. epidermidis, the MRSA biofilms were inhibited by Zn^2+ chelation (≧30 μM DTPA) (FIG. 3B). […] Like S. epidermidis, the MRSA strain USA300 could be rescued by the addition of 15-20 μM ZnCl2 (FIG. 3D). Importantly, at the minimal inhibitory concentration of DTPA (30 μM), biofilm growth by both staphylococcal species could be rescued by the addition of 5-20 μM ZnCl2; these Zn^2+ concentrations are similar to the physiological range in human plasma (12-16 μM resting concentration).

Series [8] concerns S. epidermidis RP62A biofilms. Description: RP62A biofilms on polystyrene visualized with crystal violet (FIG. 3A, 3C, 4, 7, 8). The class given is cell-based. As to the method:
as §1
FIG. 4. […] (*: p<0.05 relative to RP62A control at the relevant Zn^2+ concentration; n=3); (B) Dose response of biofilm inhibition by MBP-Brpt1.5 at a fixed 1 mM ZnCl2 concentration. (*: p<0.0005; n=3); (C) The “zinc zipper” model for intercellular adhesion in staphylococcal biofilms mediated by zinc-dependent self-association of G5 domains.
FIG. 7. […] All data at 30 μM DTPA show statistically significant decreases compared to no-treatment control (RP62A). Statistically significant increases over the 0 μM MnCl2/30 μM DTPA datapoint are marked with an asterisk (*).
To test the physiological role of Zn^2+-mediated G5 adhesion in the formation of staphylococcal biofilms, both S. epidermidis and S. aureus biofilms were grown in culture in the presence or absence of the Zn^2+ chelator diethylenetriaminepentaacetic acid (DTPA). DTPA was non-toxic at all concentrations tested (up to 100 μM). S. epidermidis strain RP62A formed robust biofilms when cultured in media alone, but biofilm growth was inhibited by non-toxic doses of DTPA (≧30 μM) (FIG. 3A).
To determine whether Zn^2+-dependent biofilm formation is specifically dependent upon G5 domain-mediated self-assembly, soluble Brpt1.5 was added to S. epidermidis RP62A biofilms as a maltose-binding protein (MBP) fusion. Because of the higher Zn^2+ concentrations required to induce dimerization in the short construct compared to full-length Aap, inhibition by MBP-Brpt1.5 was tested at Zn^2+ concentrations ranging up to 1 mM. RP62A biofilms were inhibited by soluble MBP-Brpt1.5 in the presence of 0.75 and 1 mM ZnCl2, whereas addition of MBP alone had no effect (FIG. 4A). […] Thus, addition of even a single intact zinc adhesion module in a soluble form is capable of inhibiting biofilm formation, highlighting the role of this domain as a Zn^2+-dependent adhesion module in staphylococcal biofilms.

The conditions of series [9]: Sr; cited from earlier work.
The conditions of series [10]: Mg; cited from earlier work.
Series [11] deals with S. epidermidis RP62A biofilms. Description: RP62A biofilms on polystyrene visualized with crystal violet (FIG. 3A, 3C, 4, 7, 8). In kind it is cell-based. The source holds these as a separate data set.
The conditions of series [12]: Ca; cited from earlier work.
For series [13], the system named is Methicillin-Resistant Staphylococcus aureus Strain USA300. Description: Biofilm formation assay in fibronectin pre-treated 96 well plates, crystal violet (Example 11). The class given is cell-based. The conditions noted are these: USA300, 2% glucose, 36-40 hours. As to the method: S. aureus strain USA300 was obtained from Daniel Hassett (University of Cincinnati) as a glycerol stock. 3 ml overnight cultures were grown in blood-heart infusion broth (BHI) shaking at 37° C., where cultures were diluted 1:25 for use in the biofilm assay. 2% glucose (20 ul from a 20% glucose stock) was added to each well prior to the addition of bacterial culture to promote biofilm formation. In addition, 96 well microtiter plates were pre-treated with human fibronectin (BD biomedical purchased from Fisher scientific). The fibronectin was aspirated prior to addition of chelators and glucose for the assay. Each chelator (prepared in Examples 1-6) was added directly to a 96 well microtiter plate in a series of dilutions. 20 μl of each stock solution (200, 400, 800, 1600, 3200, 6400, 13000, or 26000 μM chelator) was added to each well. 200 μl of the 1:25 dilution of USA300 bacterial culture dilution (as previously specified) were added to each well. Controls with bacterial culture media only and bacterial culture media plus vehicle controls only (final concentrations 10 mM HCl, 10% ethanol, and 10 mM NaOH) were added to wells alone without chelator. The 96 well plates were then incubated 36-40 hours statically at 37° C. Media was aspirated by pipet and wells were washed twice with filtered water. The plates were dried by inversion for 1 hour, and stained with 0.1% crystal violet for 15 minutes. Crystal violet was then aspirated by pipet and washed once with filtered water. The plates were then read on a spectrophotometer at a wavelength of 570 nm. An absorbance greater than 0.1 indicates biofilm formation.

In series [14] the test system is Methicillin-Resistant Staphylococcus epidermidis Strain RP62a. Description: Biofilm formation assay in 96 well plates, crystal violet, absorbance at 570 nm (Example 8). The class given is cell-based. To be noted: 18-24 hours, 37° C. The protocol:
S. epidermidis strain RP62a (ATCC 35984) was obtained as a glycerol stock from ATCC. 3 ml overnight cultures were grown in tryptic soy broth (TSB, BD Biomedical), shaking at 37° C., and cultures were diluted 1:200 in TSB for use in the biofilm assay.
Each chelator (prepared in Examples 1-6) was added directly to a 96 well microtiter plate in a series of dilutions. 20 μl of each stock solution (200, 400, 800, 1600, 3200, 6400, 13000, or 26000 μM chelator) was added to each well. 200 μl of the 1:200 dilution of RP62a bacterial culture (as previously specified) was added to each well. Controls with bacterial culture media only and bacterial culture media plus vehicle controls only (i.e., final concentrations 10 mM HCl, 10% ethanol, or 10 mM NaOH) were added to wells alone without chelator. The 96 well plates were then incubated 18-24 hours statically at 37° C. Media was aspirated by pipet and wells were washed twice with filtered water. The plates were dried by inversion for 1 hour, and stained with 0.1% crystal violet for 15 minutes. Crystal violet was then aspirated by pipet and washed once with filtered water. The plates were then read on a spectrophotometer at a wavelength of 570 nm. An absorbance greater than 0.1 indicates biofilm formation.

The test system of series [15] is Staphylococcus aureus Strain Rosenbach SA113. Description: Biofilm formation assay in FBS pre-treated 96 well plates, crystal violet (Example 9). In kind it is cell-based. To be noted: SA113, 2% glucose, 36-40 hours. The protocol: In addition, 96 well microtiter plates were pre-treated with fetal bovine serum (FBS) at 4° C. for at least 24 hours prior to use. The FBS was aspirated prior to addition of chelators and glucose for the assay. […] The 96 well plates were then incubated 36-40 hours statically at 37° C. Media was aspirated by pipet and wells were washed twice with filtered water. The plates were dried by inversion for 1 hour, and stained with 0.1% crystal violet for 15 minutes. Crystal violet was then aspirated by pipet and washed once with filtered water. The plates were then read on a spectrophotometer at a wavelength of 570 nm.

The conditions of series [16]: Mn; cited from earlier work.
The conditions of series [17]: Zn; cited from earlier work.
Series [18] deals with the molecule itself. Description: sedimentation velocity analytical ultracentrifugation; self-association with and without 10 mM ZnCl2, normalized c(s) [panel E].
Series [19] relates to G5 domains of Aap (Zn^2+-mediated monomer-dimer association). To be noted: 10 mM ZnCl2, pH 7.4 to 6.0, FIG. 6B.
Protocol: The dashed line label (- - -) represents cation-free Brpt1.5; (B) Far-UV CD spectrum of Brpt1.5 in the presence (squares) and absence (triangles) of Zn; (C) Sedimentation equilibrium analysis of Zn^2+-mediated dimerization of Brpt1.5 (triangles) and Brpt2.5 (squares). […] Error bars show 95% confidence intervals; (D) Linked equilibrium plot of Zn binding by Brpt1.5.
(A) Sedimentation velocity analysis of the Zn^2+-dependent dimerization of Brpt1.5 as a function of pH in 20 mM Tris, 20 mM MES, 50 mM NaCl, and 10 mM ZnCl2. […] Dashed lines show data collected in the absence of Zn^2+, and solid lines show data collected at 10 mM ZnCl2.
To analyze the linked equilibria between dimerization and Zn^2+ binding, the logarithm of the dimerization association constant was plotted against the logarithm of the free Zn^2+ concentration to reveal the net number of Zn^2+ ions participating in the dimerization interface.
Series [20] concerns the molecule itself.
Series [21] deals with the molecule itself. Description: sedimentation equilibrium AUC, monomer-dimer association at 10 mM Zn; 10 mM Zn (ZnCl2), sedimentation equilibrium.
Series [22] concerns the molecule itself. Description: sedimentation equilibrium AUC, monomer-dimer association at 2 mM Zn; 2 mM Zn (ZnCl2), sedimentation equilibrium.
Series [23] deals with the molecule itself. Description: sedimentation equilibrium AUC, monomer-dimer association at 5 mM Zn; 5 mM Zn (ZnCl2), sedimentation equilibrium.

Molecule “Brpt2.5 (Aap construct with two G5 domains and the C-terminal cap)” came in with an EC50 of [Zn2+] for dimerization in series [1] of 3700 µM. Besides, the results for the Mexperimental (molecular weight) in series [2] and in series [3] were 37000 and 78500, respectively. Besides, the figures for the Kd in series [4] and in [5] were 25.5 µM and 0.072 µM, respectively.

Turning to “MBP-Brpt1.5 (soluble Brpt1.5 as a maltose-binding protein fusion) (from UniProt Q8CQD9 1089-1296)”, the concentration that completely abolished RP62A biofilm formation at 1 mM ZnCl2 in series [6] was 10 µM and 22 µM.

For `[Cl-].[Cl-].[Zn+2]` [ZnCl2], the “concentration that rescues biofilm formation” value in series [7] (USA300, at minimal inhibitory dose of DTPA (30 μM), FIG. 3D) is 15 to 20 µM; in series [8] (RP62A, at minimal inhibitory dose of DTPA (30 μM), FIG. 3C), 5 to 20 µM.

Regarding `O=C(O)CN(CCN(CC(=O)O)CC(=O)O)CCN(CC(=O)O)CC(=O)O` [DTPA, diethylenetriaminepentaacetic acid], the “affinity for DTPA (log K)” value in series [9] was 9.68; in [10], 9.3; in series [12], 10.74; in series [16], 15.5; in series [17], 18.75. Moreover, in series [11], the “disruption of pre-formed biofilms” value is reported as “did not disrupt”. The “concentration that inhibits biofilm formation” value in [7] (USA300 on fibronectin-coated plates, FIG. 3B) was at least 30 µM; in [8] (RP62A on polystyrene, FIG. 3A), at least 30 µM. The “chelator concentration at which biofilms were diminished but not cleared” value in series [13] and in [14] was 20 µM in each case. For the same molecule, the “chelator concentration at which biofilms were inhibited (absorbance of 0.1 or less)” value was 40 µM in series [14] and 20 µM in [15].

B1: H75A/H85A Brpt1.5 mutant (other)
chain: VDGDSITSTEEIPFDKKREFDPNLAPGTEKVVQKGEPGTKTITTPTTKNPLTGEKVGEGEPTEKITKQPVDEIVAYGGEQIPQGAKDEFDPNAPVDSKTEVPGKPGVKNPDTGEVVTPPVDDVTKYGPVDGDSITSTEEIPFDKKREFDPNLAPGTEKVVQKGEPGTKTITTPTTKNPLTGEKVGEGKSTEKVTKQPVDEIVEYGPTK
notes: also called histidine-null mutant
Consider B1, for which the binding result in series [18] is recorded as “binds”.

B2: Brpt1.5: single G5 domain of Aap B-repeat region followed by the C-terminal 79 amino acid half-repeat (protein)
chain: VDGDSITSTEEIPFDKKREFDPNLAPGTEKVVQKGEPGTKTITTPTTKNPLTGEKVGEGEPTEKITKQPVDEIVHYGGEQIPQGHKDEFDPNAPVDSKTEVPGKPGVKNPDTGEVVTPPVDDVTKYGPVDGDSITSTEEIPFDKKREFDPNLAPGTEKVVQKGEPGTKTITTPTTKNPLTGEKVGEGKSTEKVTKQPVDEIVEYGPTK
Turning to B2, the “apparent pKa of dimer to monomer transition” value in series [19] was 6.7.

B3: Brpt1.5 (C-terminal G5 domain of the B-repeat region of Aap followed by the C-terminal 79 amino acid half-repeat) (other)
chain: VDGDSITSTEEIPFDKKREFDPNLAPGTEKVVQKGEPGTKTITTPTTKNPLTGEKVGEGEPTEKITKQPVDEIVHYGGEQIPQGHKDEFDPNAPVDSKTEVPGKPGVKNPDTGEVVTPPVDDVTKYGPVDGDSITSTEEIPFDKKREFDPNLAPGTEKVVQKGEPGTKTITTPTTKNPLTGEKVGEGKSTEKVTKQPVDEIVEYGPTK
notes: also called wild-type Brpt1.5; zinc adhesion module
Consider B3, for which the “EC50 of [Zn2+] for dimerization” value in [20] came to 5400 µM. Besides, the dissociation constant (Kd) (commonly the concentration at which binding is half-saturated) is 0.353 µM in series [21], 113 µM in series [22] and 5.06 µM in series [23].
